Entries after “also recorded” stand apart in the source; their conditions may differ.
Assays:
[1] = tested on: human oligodendrocytes cell cultures; assay: Metabolic conversion in human oligodendrocytes cell culture (HPLC-MS); type: in vitro ADME; conditions: 10^−6M; for 9CDHRA levels in cells after treatment (metabolism / accumulation): n=3
Description: (§1) In a slight variant of the method, after reaching confluency of 80% cells were treated with 9CDHROL, 9CDH-retinyl ester (acetate, 9CDHROL-ES), 9CDHRA, 9CDH-retinoyl ester, (ethyl ester, 9CDHRA-ES), ATROL, 9CDHBC, 9CBC and ATBC at a concentration of 10^−6 M or ethanol at corresponding concentration was used as control vehicle treatment. Cells were harvested 18 hours later, centrifuged, weighted, frozen in liquid nitrogen and stored at −80° C. until analyses.
(§2) High performance liquid chromatography mass spectrometry (LC-MS) was carried out as described in Example 4.
9CDHRA levels including standard deviation in human oligodendrocytes cultures were assessed using HPLC-MS analysis after control treatment using ethanol (CTRL), as well as ATROL treatment (ATROL), 9CBC treatments (9CBC), ATBC treatments (ATBC), 9CDHBC treatment (9CDHBC), 9CDHROL treatments (9CDHROL), 9CDHROL-ester treatments (9CDHROL-ES), 9CDHRA treatments (9CDHRA) or 9CDHRA-ester treatments (9CDHRA-ES), each with 10^−6M concentration and n=3 (FIG. 14D).

[2] = tested on: oligodendrocytes cell line 158N; assay: Metabolic conversion in mouse oligodendrocytes cell culture (LC-MS); type: in vitro ADME; conditions: for 9CDHRA levels in cells after treatment: 10^−5M for 18 h; for 9CDHROL levels in cells after treatment: 10^−6 M, 18 hours; for conversion to 9CDHRA: data not shown; for 9CBC in cells after treatment: 411 nm detection, retention time 26.1 min; for 9CDHBC peak in cells after treatment: UV detection at 366 nm, retention time 25.1 min
Description: Normal immortalized oligodendrocytes cell line 158N was cultured as previously reported (Feutz et al., 2001). Expediently, cells were cultured in supplemented with 5% calf serum (Invitrogen, France). When cells attained 70% of confluency they were treated with 10^−2 M ethanol solution of one of the following compounds: 9CDHROL, 9CDHROL-acetate, 9CDHRA-ethyl ester. 9CDHRA and ethanol as controls, vehicle treatment. 18 h after treatment cells were collected in amber Eppendorf tubes and stored at −80° C. until analyses. Treatments and cell collection were carried out in light limited conditions to avoid photolysis of retinoids.
as §1, §2

[3] = tested on: differentiating monocyte-derived human dendritic cells; assay: DNA microarray in differentiating monocyte-derived dendritic cells; type: cell-based; conditions: for expression of genes that are direct targets of RXR permissive heterodimers (LXR-RXR, PPAR-RXR) and RAR-RXR: 9CDHRA 10 μM, 9CRA 1 μM, GW3965 1 μM, RSG 1 μM, GW1516 1 μM, AM580 100 nM
Description: The generation and transcriptional analysis of differentiating DCs were performed as described previously [Szeles L et al. 2010]. Microarray data were deposited into the Gene Expression Omnibus database under accession no. GSE48573.
The generation and analysis of differentiating DCs were performed as described previously [Szeles L et al. 2010] with minor modifications. Briefly, human monocytes were isolated from healthy volunteer's buffy coat, obtained with a Regional Ethical Board permit from the Regional Blood Bank and isolated by Ficoll gradient centrifugation followed by immunomagnetic cell separation, and were cultured in the presence of GM-CSF and IL-4. Differentiating DCs were stimulated 18 h after […] by various agonists for 12 h. The ligands were used in the following concentrations: 10 μM (R)-9CDHRA, 10 μM (S)-9CDHRA, 1 μM 9cisRA, 100 nM LG100268, 1 μM GW3965, 1 μM Rosiglitazone (RSG), 1 μM GW1516, 100 nM AM580. Experiments were performed in biological triplicates. Samples were processed and hybridized to Human Genome U133 Plus 2.0 Arrays. Data were analysed using to GeneSpring 12.6.1 software. In detail, normalization was performed using RMA summarization algorithm. […] Microarray data were deposited into the Gene Expression Omnibus database under accession no. GSE48573.

[4] = tested on: Rbp1−/− and Rxrγ−/− mice; assay: Y-maze spontaneous alternation; type: in vivo, mouse; conditions: 5-6 hours prior to testing
Description: The Y-maze apparatus and the procedure were as previously described (Wietrzych et al., 2005). Briefly, each mouse was placed at the end of one arm and allowed to explore freely the apparatus for 5 min, with the experimenter out of the animal's sight. Spontaneous alternation performance (SAP) was assessed visually by scoring the pattern of entries into each arm and expressed as a percentage of total number of entries, discounting the first two visits. Total entries were scored as an index of ambulatory activity in the Y-maze, but none of tested mice had to be excluded due to low locomotor performance (score below 9 entries).
(§3) Vehicle treatments consisted of 3% ethanol and 3% DMSO solution in sunflower oil. Treatments were administered by intraperitoneal injections at volume/weight ratio 3 ml/kg between 8-10 am and 5-6 h before the test as previously validated (Wietrzych-Schindler M, 2011).

[5] = tested on: Rbp1−/−, Rxrγ−/− and WT mice; assay: Forced swim test after acute treatment; type: in vivo, mouse; conditions: Rbp1−/− mice, acute i.p. treatment 5-6 h before the test
Description: (§4) The forced swim paradigm was carried out between 1 pm and 4 pm in a 3-litre glass beaker half-filled with water at 22-23° C. (the water depth was 17 cm). All mice were tested only once in this task. To this end, each mouse was lowered gently into the water and the time of immobility was scored during a 6-minute testing period. The mouse was judged immobile when it floated in an upright position and made only small movements to keep its head above the water. After 6 min, the mouse was taken out of the water, left to dry under a red light lamp and returned to its home cage. The immobility scores of each animal were used as an index of despair behavior.
as §3
as §4, with “paradigm (Dalvi and Lucki, 1999)” for “paradigm”, “2-litre” for “3-litre”

[6] = Rbp1−/− mice, ATRA 5 mg/kg, UVI2108 1 mg/kg, MA 5 mg/kg, DHA 1 mg/kg, TTNPB 5 mg/kg

Compound: CC(=O)OCC[C@@H](C)/C=C/C=C(C)\C=C\C1=C(C)CCCC1(C)C (stereo in doubt) [9CDHROL-ES, (R)-9-cis-13,14-dihydroretinyl acetate]
- production of 9CDHRA by the ester form compared with 9CDHROL and 9CDHRA, respectively [1]: higher production
- 9CDHRA levels in cells after treatment [2]: strong increase
- 9CDHROL levels in cells after treatment [2]: excellent/strongly
- conversion to 9CDHRA [2]: excellent precursor

Compound: CC1=C(/C=C/C(C)=C\C=C\C(C)=C\C=C\C=C(C)\C=C\C=C(C)\C=C\C2=C(C)CCCC2(C)C)C(C)(C)CCC1 [9CBC, 9-cis-β,β-Carotene]
- 9CDHRA levels in cells after treatment (metabolism / accumulation) [1]: not converted to 9CDHRA
- ATROL levels in cells after treatment ([2]; 10^−6M): a low conversion or induced increase
- 9CDHROL levels in cells after treatment [2]: no or just a weak increase; also recorded: weak significant increase
- 9CBC in cells after treatment [2]: could detect 9CBC
- 9CDHBC peak in cells after treatment [2]: higher peak was observed
- conversion to 9CDHRA [2]: not converted to 9CDHRA

Compound: CCOC(=O)C[C@@H](C)/C=C/C=C(C)\C=C\C1=C(C)CCCC1(C)C [9CDHRA-ES, Ethyl (9Z,13R)-13,14-Dihydroretinoate]
- production of 9CDHRA by the ester form compared with 9CDHROL and 9CDHRA, respectively [1]: higher production
- 9CDHRA levels in cells after treatment (metabolism / accumulation) [1]: strong accumulation
- 9CDHRA levels in cells after treatment [2]: very strong increase

Compound: CC1=C(/C=C/C(C)=C\C=C\C(C)=C\C(=O)O)C(C)(C)CCC1 [9CRA, 9-cis-retinoic acid, reference compound]
- expression of genes induced by AM580 (RAR-RXR target genes) [3]: also induced
- number of transcripts regulated ([3]; 10 μM (R)-9CDHRA, 1 μM 9CRA, 12 h, FC>2): 450
- expression of genes that are direct targets of RXR permissive heterodimers (LXR-RXR, PPAR-RXR) and RAR-RXR ([3]; LG268 100 nM): induce the expression of many genes

Compound: CC1(C)CCC(C)(C)c2cc(C(=O)Nc3ccc(C(=O)O)cc3)ccc21 [AM580, reference compound]
- expression of genes that are direct targets of RXR permissive heterodimers (LXR-RXR, PPAR-RXR) and RAR-RXR ([3]; LG268 100 nM): also induced

Compound: CC1=C(/C=C/C(C)=C/C=C/C(C)=C/C=C/C=C(C)/C=C/C=C(C)/C=C/C2=C(C)CCCC2(C)C)C(C)(C)CCC1 [ATBC, all-trans-β,β-carotene, reference compound]
- 9CDHRA levels in cells after treatment (metabolism / accumulation) [1]: not converted to 9CDHRA
- 9CDHROL levels in cells after treatment [2]: did not display any increase; also recorded: did not result in any increase
- 9CBC in cells after treatment [2]: no 9CBC could be detected
- 9CDHBC peak in cells after treatment [2]: not be conclusively detected
- conversion to 9CDHRA [2]: not converted to 9CDHRA
- ATBC level in cells after ATBC-treatment ([2]; detectable at 411 nm, eluting at 27.2 min): present in very high levels

Compound: Cc1cc(SCc2sc(-c3ccc(C(F)(F)F)cc3)nc2C)ccc1OCC(=O)O [GW1516, reference compound]
- expression of genes that are direct targets of RXR permissive heterodimers (LXR-RXR, PPAR-RXR) and RAR-RXR ([3]; LG268 100 nM): also induced

Compound: O=C(O)Cc1cccc(OCCCN(Cc2cccc(C(F)(F)F)c2Cl)CC(c2ccccc2)c2ccccc2)c1 [GW3965, reference compound]
- expression of genes that are direct targets of RXR permissive heterodimers (LXR-RXR, PPAR-RXR) and RAR-RXR ([3]; LG268 100 nM): also induced

Compound: Cc1cc2c(cc1C1(c3ccc(C(=O)O)cn3)CC1)C(C)(C)CCC2(C)C [LG268, reference compound]
- expression of genes that are direct targets of RXR permissive heterodimers (LXR-RXR, PPAR-RXR) and RAR-RXR ([3]; LG268 100 nM): induce the expression of many genes
- transcripts of the set common to (R)-9CDHRA and 9CRA also regulated by LG268 ([3]; LG268 100 nM): 61

Compound: C/C(=C\c1ccc(C(=O)O)cc1)c1ccc2c(c1)C(C)(C)CCC2(C)C [TTNPB]
- working memory in spontaneous alternation in the Y-maze [4, 6]: not
- immobility (despair) in the forced swim test [5]: did not display such effects

Compound: COC(C)(C)CCCC(C)C/C=C/C(C)=C/C(=O)O (stereo not shown) [methoprene acid]
- working memory in spontaneous alternation in the Y-maze [4, 6]: pro-mnemonic effects
- working memory in spontaneous alternation in the Y-maze ([4]; Rbp1−/− mice, ATRA 5 mg/kg, UVI2108 1 mg/kg, MA 5 mg/kg, DHA 1 mg/kg, TTNPB 5 mg/kg, listed as MA): normalised
- working memory in spontaneous alternation in the Y-maze ([4]; Rxrγ−/− mice, same doses): not
- immobility (despair) in the forced swim test [5]: normalized increased despair
- immobility (despair) in the forced swim test ([5]; listed as MA): normalised

Reference: US12029715B2, “Precursor compounds for providing retinoids of the vitamin A5 pathway and uses thereof” (UNIVERSITY OF DEBRECEN, priority 2015, dated 2024)
